In patent publication US20110201664A1, “Methods and Compositions for Treatment of Prostate Intraepithelial Neoplasia” (priority 2006, published 2011):

Tested on: High Grade PIN
Assay: Treatment of a patient with High Grade PIN, repeat prostate biopsy
Type: in vivo, human
Conditions: person with High Grade PIN; 225 mg per day once daily, 30 doses; 12 biopsies two weeks after last dose; on Atorvastatin 20 mg daily
Description: A person was diagnosed as having High Grade PIN. The diagnosis was based upon 12 biopsies which were done in conjunction with ultrasound localization of the biopsy site, with careful recording of there anatomical position. The patient was started on Bexarotene 225 mg per day. The drug was given as a single dose once daily. […] During the period of therapy the patient was on Atorvastatin 20 mg daily. During the therapy, total cholesterol was 183 mg with a reference range <200 mg/dL, triglycerides were 207 with normal being less than 150 mg/dL, thyroid stimulation hormone (TSH) was 0.07 with the reference range 0.4-5.5 mIU/L, T4 total was 7.4 with the normal range 4.5-12.0 mcg/dL. The Hepatic Function Panel was normal as was the complete blood count (CBC). Two weeks following the last dose of Bexarotene the prostate was rebiopsied with 12 biopsies taken. Six of the biopsies were taken from the putative area, the rest in an enlarging target like pattern. The repeat biopsy was negative for the presence of PIN.

C=C(c1ccc(C(=O)O)cc1)c1cc2c(cc1C)C(C)(C)CCC2(C)C [Bexarotene, 4-[1-(5,6,7,8-tetrahydro-3,5,5,8,8-pentamethyl-2-naphthalenyl)ethenyl] benzoic acid]
Repeat biopsy, presence of PIN: negative
